From ChEMBL document CHEMBL4627375, “Monovalent protein-degraders - Insights and future perspectives” (Bioorg Med Chem Lett, 2020)

Experiments:
[1] = target: Maternal embryonic leucine zipper kinase (Homo sapiens, UniProt Q14680); test: Inhibition of MELK (unknown origin)
Homo sapiens = organism: Homo sapiens; test: Selectivity ratio, ratio of IC50 for HDAC6 (unknown origin) to Class 1 HDAC (unknown origin)
[2] = target: T1, Protein deacetylase HDAC6 (Homo sapiens, UniProt Q9UBN7); test: Inhibition of HDAC6 (unknown origin)
T1 sequence (Q9UBN7 whole entry): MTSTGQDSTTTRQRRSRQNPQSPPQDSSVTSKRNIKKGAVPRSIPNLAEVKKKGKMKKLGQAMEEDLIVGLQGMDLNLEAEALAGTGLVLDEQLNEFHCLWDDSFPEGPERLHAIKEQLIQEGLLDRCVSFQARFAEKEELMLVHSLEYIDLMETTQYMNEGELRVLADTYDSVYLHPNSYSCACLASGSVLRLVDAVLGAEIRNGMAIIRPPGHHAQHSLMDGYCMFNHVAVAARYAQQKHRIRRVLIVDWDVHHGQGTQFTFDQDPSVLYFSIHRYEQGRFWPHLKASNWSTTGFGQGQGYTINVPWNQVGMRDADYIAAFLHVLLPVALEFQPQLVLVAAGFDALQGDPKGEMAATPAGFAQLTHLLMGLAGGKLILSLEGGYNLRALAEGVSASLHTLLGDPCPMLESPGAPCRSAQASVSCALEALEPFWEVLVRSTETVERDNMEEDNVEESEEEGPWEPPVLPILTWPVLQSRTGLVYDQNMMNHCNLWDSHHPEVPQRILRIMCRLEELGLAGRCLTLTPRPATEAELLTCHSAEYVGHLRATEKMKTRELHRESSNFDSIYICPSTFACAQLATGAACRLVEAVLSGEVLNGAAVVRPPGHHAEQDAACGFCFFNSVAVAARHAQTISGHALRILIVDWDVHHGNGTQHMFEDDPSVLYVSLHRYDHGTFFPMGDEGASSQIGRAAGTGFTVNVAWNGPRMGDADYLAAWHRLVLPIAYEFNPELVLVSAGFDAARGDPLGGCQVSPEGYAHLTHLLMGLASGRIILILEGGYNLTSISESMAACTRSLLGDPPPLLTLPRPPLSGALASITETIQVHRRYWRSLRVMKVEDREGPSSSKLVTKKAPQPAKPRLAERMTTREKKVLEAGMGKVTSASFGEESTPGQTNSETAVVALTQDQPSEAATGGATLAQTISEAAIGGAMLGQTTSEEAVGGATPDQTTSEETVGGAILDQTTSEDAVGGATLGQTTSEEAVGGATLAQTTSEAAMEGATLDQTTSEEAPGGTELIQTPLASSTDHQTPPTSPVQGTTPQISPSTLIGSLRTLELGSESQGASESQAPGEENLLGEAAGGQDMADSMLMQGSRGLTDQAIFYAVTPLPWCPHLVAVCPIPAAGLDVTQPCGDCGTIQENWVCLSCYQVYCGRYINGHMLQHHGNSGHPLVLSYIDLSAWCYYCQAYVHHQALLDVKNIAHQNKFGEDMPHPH

[3] = target: Protein phosphatase 1 regulatory subunit 15A (Homo sapiens, UniProt O75807); test: Inhibition of amino-terminal MBP-tagged/carboxy-terminal His6-tagged human PPP1R15A (325 to 626 residues)
Sequence of Protein phosphatase 1 regulatory subunit 15A (O75807 whole entry, the tested form may be a part): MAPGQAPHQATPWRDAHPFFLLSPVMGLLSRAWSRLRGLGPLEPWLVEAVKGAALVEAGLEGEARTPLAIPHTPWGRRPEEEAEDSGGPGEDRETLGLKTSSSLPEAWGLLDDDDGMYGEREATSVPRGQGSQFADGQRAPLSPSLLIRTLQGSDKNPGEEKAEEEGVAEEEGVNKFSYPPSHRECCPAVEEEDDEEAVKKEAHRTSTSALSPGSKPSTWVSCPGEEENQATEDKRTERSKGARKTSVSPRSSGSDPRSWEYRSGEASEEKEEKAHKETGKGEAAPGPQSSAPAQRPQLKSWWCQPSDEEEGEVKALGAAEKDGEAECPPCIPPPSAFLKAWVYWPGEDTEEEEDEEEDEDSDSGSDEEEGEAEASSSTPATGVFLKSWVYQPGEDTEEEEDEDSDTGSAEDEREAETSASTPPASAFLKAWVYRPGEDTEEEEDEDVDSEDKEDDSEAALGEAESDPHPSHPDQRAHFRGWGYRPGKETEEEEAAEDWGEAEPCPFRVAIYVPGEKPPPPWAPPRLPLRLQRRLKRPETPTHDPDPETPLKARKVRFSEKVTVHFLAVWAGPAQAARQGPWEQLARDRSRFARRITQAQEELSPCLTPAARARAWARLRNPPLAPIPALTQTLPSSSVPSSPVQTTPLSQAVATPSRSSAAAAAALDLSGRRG

[4] = target: T2, Protein phosphatase 1 regulatory subunit 15B (Homo sapiens, UniProt Q5SWA1); test: Inhibition of amino-terminal MBP-tagged/carboxy-terminal His6-tagged human PPP1R15B (325 to 626 residues)
T2 sequence (Q5SWA1 whole entry): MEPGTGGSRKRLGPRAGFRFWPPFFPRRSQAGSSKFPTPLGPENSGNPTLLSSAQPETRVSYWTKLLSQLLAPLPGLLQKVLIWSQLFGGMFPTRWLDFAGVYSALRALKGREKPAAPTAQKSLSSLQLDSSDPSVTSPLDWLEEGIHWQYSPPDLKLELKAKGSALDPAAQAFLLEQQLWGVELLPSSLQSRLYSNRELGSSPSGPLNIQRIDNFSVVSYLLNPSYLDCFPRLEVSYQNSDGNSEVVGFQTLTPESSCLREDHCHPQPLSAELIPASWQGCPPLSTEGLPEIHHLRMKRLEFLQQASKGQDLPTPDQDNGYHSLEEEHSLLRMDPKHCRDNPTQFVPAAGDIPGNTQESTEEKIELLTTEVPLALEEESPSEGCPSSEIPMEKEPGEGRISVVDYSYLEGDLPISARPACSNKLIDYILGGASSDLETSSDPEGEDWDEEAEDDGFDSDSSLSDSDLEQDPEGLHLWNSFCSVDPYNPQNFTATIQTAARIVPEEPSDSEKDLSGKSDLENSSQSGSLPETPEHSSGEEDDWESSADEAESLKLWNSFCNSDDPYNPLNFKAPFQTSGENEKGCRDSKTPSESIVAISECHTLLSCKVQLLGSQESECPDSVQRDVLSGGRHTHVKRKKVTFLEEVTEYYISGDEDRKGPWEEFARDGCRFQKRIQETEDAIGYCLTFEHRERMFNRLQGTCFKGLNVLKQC

Sequence of Maternal embryonic leucine zipper kinase (Q14680 whole entry): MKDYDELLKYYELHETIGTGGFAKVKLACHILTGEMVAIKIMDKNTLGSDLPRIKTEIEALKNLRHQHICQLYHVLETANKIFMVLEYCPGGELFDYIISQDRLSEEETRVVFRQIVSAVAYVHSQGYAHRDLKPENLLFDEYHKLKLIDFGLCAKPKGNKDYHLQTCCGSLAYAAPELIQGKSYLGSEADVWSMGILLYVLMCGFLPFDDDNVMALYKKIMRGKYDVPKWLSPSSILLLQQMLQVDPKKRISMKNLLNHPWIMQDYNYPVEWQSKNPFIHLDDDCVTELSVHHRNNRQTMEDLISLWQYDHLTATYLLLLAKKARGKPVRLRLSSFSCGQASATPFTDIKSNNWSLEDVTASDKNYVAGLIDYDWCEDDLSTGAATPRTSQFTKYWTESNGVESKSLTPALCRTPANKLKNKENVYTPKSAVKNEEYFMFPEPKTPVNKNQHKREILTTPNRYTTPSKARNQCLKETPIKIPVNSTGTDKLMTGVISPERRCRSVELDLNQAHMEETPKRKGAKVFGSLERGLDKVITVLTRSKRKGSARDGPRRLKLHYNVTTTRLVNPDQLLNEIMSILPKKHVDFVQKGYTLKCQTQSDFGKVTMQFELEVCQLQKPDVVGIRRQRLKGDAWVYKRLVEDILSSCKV

Row | IC50 [1] [nM] | Ratio IC50 (Homo sapiens) | IC50 [2] [nM] | IC50 [3] [nM] | IC50 [4] [nM] | SMILES
1 | 200 to 500 |  |  |  |  | CNC(=O)COc1cc2cc(Nc3nc(N4C[C@H](C)C[C@H](C)C4)ncc3Cl)ccc2n(C)c1=O
2 | 200 to 500 | 200 | 4.7 |  |  | O=C(NO)c1ccc(Cn2c(=O)n(CCc3ccccc3)c(=O)c3ccccc32)cc1
3 | 200 to 500 |  |  | 977 | 33 | N=C(N)N/N=C/c1cccc(Cl)c1Cl

Row | SMILES | IC50 [1] [nM] | Ratio IC50 (Homo sapiens) | IC50 [2] [nM] | IC50 [3] [nM] | IC50 [4] [nM]
4 | COc1ccc(/C=C2\SC(=S)NC2=O)cc1C#C[Si](C)(C)C | 200 to 500 |  |  |  | 
